Tests used:
PMAEC = experiment: Generation of superoxide and additional markers of oxidative stress (DCFH, Rac-1 G-LISA, oxidized glutathione) in PMAEC; type: cell-based, mouse
Method: Generation of Superoxide and Additional Markers of Oxidative Stress
To quantitate superoxide production induced by Ang II, a vessel chamber assay was used to measure total cytoplasmic and mitochondrial superoxide production in real time in PMAEC from AGER KO and C57Bl6 aortae. PMAEC were grown on collagen coated cover slips and mounted into a sealed glass chamber when they were 80% confluent. The chambers were perfused with Krebs buffer for an hour with fluorescent readings taken every 10 minutes to establish baseline readings. The cells were then perfused with 1 μM Ang II for 60 minutes and fluorescent readings were taken every 1 minute for a further 10 minutes. Fluorescence readings were expressed as change (Δ) in fluorescence arbitrary units from baseline. Levels of the activated NADPH oxidase subunit, Rac-1 activation was also measured in cell lysates after exposure to Ang II using a Rac-1 G-LISA activation assay (Cytoskeleton), as per manufacturers' instructions. Additional markers of oxidative stress were also assayed including levels of oxidized glutathione, (Cayman Chemical Company, US), performed as per manufacturer's instructions.

apoE KO mice [1] = experiment: Aortic expression of pro-inflammatory mediators by quantitative real-time PCR (aortic homogenates); type: in vivo, mouse; conditions: four-week infusion 1 μg/kg/min
Method: Aortic Expression of Pro-Inflammatory Mediators by Quantitative Real-Time PCR
(§1) At the end of each study period, thoracic and abdominal aortae were placed in TRIZOL, snap frozen and stored at −80° C. RNA extraction and cDNA synthesis was performed in aortic homogenates using the Trizol method. Gene expression of pro-atherogenic mediators including adhesion molecules, cytokines, inflammatory, oxidative stress and macrophage markers, were estimated in aortic homogenates by quantitative real-time RT-PCR, performed using the TaqMan system based on real-time detection of accumulated fluorescence (ABI Prism 7700, Perkin-Elmer Inc, PE Biosystems, Foster City, CA, USA). Gene expression was normalized to 18S mRNA and reported as fold change compared to the level of expression in untreated control mice/cells, which were given an arbitrary value of 1.

apoE KO mice [2] = experiment: Induction of oxidative stress (plasma 8-OHdG ELISA, aortic NOX-1/NOX-4 RT-PCR); type: in vivo, mouse; conditions: four-week infusion 1 μg/kg/min
Text: Induction of Oxidative Stress
The induction of oxidative stress in each animal model was estimated by the measurement of plasma levels of 8-hydroxydeoxyguanosine using the OxiSelect Oxidative DNA Damage ELISA Kit (8-OHdG Quantitation; Cell Biolabs, Inc), and performed as per manufacturer's instructions. In addition, gene expression of the superoxide-producing NADPH oxidase subunits, NOX-1 and NOX-4 were quantitated in the aortae of mice using real time RT-PCR, as detailed above.

[3] = Systolic BP measurement by tail-cuff plethysmography; type: in vivo, mouse; conditions: four-week infusion 1 μg/kg/min, both apoE KO and AGER/apoE DKO mice
Method: Systolic blood pressure was measured by tail-cuff plethysmography in conscious, pre-warmed mice using a computerized, non-invasive, tail-cuff system (Kent Scientific, USA). Animals were habituated to the device before measuring the pressures to ensure accurate measurements.

isolated aortae = experiment: Ex vivo exposure of isolated aortae to Ang II, expression of pro-atherogenic mediators by RT-PCR; design: species or system mouse; conditions: 1 μM
Method: as §1
Ex Vivo Studies in Isolated Aortae
Aortae were isolated from apoE KO and AGER/apoE DKO mice, divided and placed in Krebs buffer and maintained at physiological pH by infusing carbogen gas (95% O2; 5% CO2) through the buffer at 37° C. Vessels (n=6/group) were then treated with Ang II (1 μM) for 4 hours. After which time, whole blood labelled with DilC18 (1:1000) was then perfused through the aorta at 0.12 ml/min. Images and videos of vessel wall-cell interactions were observed using a fluorescence microscope (Zeiss Discovery.V20), coupled to a digital camera ([…] ORCA-ER) and analysed with AxioVison software.

AT1 receptor = AT1 receptor (Homo sapiens, UniProt P30556); experiment: Receptor-HIT BRET, β-arrestin2/Venus with RAGE/Rluc8 and AT1 receptor; type: cell-based
Method: The BRET ratio was calculated by subtracting the ratio of ‘acceptor emission’ over ‘donor emission’ for a cell sample expressing Rluc8-tagged protein alone from the same ratio for a cell sample expressing both Rluc8 and Venus-tagged proteins. Alternatively, the ligand-induced BRET signal was calculated by subtracting the ratio of ‘acceptor emission’ over ‘donor emission’ for a vehicle-treated cell sample from the same ratio for a second aliquot of the same cells treated with agonist.
The fluorescence/luminescence ratio was generated by dividing the fluorescence values in arbitrary units (obtained with the EnVision) by the luminescence values also in arbitrary units (obtained as part of the BRET assay).

Sequence of AT1 receptor (P30556 whole entry): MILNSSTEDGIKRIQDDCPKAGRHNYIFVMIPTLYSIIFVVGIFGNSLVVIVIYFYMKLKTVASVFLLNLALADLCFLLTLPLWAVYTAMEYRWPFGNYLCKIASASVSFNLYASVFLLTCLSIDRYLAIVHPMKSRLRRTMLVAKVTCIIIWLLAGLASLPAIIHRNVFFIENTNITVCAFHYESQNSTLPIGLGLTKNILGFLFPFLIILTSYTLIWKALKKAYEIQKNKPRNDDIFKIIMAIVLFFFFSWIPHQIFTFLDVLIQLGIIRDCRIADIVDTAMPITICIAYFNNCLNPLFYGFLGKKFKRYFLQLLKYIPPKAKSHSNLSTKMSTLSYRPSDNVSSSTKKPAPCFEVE
Sequence of AT1 receptor (P32121 whole entry partner): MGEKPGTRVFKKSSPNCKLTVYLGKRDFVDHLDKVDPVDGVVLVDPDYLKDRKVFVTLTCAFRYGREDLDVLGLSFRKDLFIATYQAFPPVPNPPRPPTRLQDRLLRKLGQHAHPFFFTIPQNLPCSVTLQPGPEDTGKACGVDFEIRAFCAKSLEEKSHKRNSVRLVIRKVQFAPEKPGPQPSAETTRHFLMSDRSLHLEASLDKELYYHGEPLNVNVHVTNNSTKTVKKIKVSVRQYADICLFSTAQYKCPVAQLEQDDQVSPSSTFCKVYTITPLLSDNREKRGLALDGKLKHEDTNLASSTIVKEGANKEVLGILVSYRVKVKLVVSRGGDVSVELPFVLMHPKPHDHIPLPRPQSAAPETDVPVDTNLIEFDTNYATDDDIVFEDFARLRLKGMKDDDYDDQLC

angiotensin II (DRVYIHPF) [Ang II, cognate ligand of AT1R]
ROS production and oxidative stress (PMAEC; PMAEC from AGER KO mice): does not lead to | production of ROS and other markers of oxidative stress (activated rac-1, oxidised glutathione) (PMAEC; PMAEC from C57bl6 mice, 1 μM): rapid increase | aortic expression of pro-atherogenic mediators (apoE KO mice [1]; AGER/apoE DKO mice): preventing | aortic expression of genes coding for pro-atherogenic mediators (apoE KO mice [1]; apoE KO mice): increases | oxidative stress (apoE KO mice [2]; AGER/apoE DKO mice): preventing | markers of oxidative stress (apoE KO mice [2]; apoE KO mice): increases | systolic blood pressure [3]: increased to a similar extent | induction of atherogenic mediators (isolated aortae; aortae from AGER/apoE DKO mice): prevents | expression of pro-atherogenic mediators (isolated aortae; isolated aortae from apoE KO mice): increases | recruitment of βarrestin2/Venus to AT1/Rluc8 (AT1 receptor; control): recruitment | recruitment of β-arrestin2/Venus proximal to RAGE/Rluc8 (AT1 receptor; in the presence of AT1 receptor): recruitment

Reference: US12060408B2, “Screening assays, modulators and modulation of activation of Receptor for Advanced Glycation End-products (RAGE)” (Monash University, priority 2017, dated 2024)
